Source: EP2404925A1, “New all trans platinum (IV) complexes, their preparation and their use as antitumor agents” (Universidad Autónoma de Madrid, priority 2010, dated 2012)

How the values were obtained:
NCI-H460 = experiment: In vitro antiproliferative assay (14C-thymidine uptake), H460 cells; type: cell-based, human; conditions: 72 h incubation, then 14C-thymidine uptake recorded 24 h later
Experimental: (§1) • CCRF-CEM is a human T-cell leukemia cell line (DSMZ ref ACC 240), established in 1964 from peripheral blood of young child bearing a terminal-stage ALL (Foley et al., Cancer 18: 522-529 (1965)). • NCI-H460 is a human epidermoïd lung tumour cell line, obtained from the NCI (NCI-Frederick. Tumor Bank). • MX1 is a human mammary carcinoma tumour, harbouring BRCA1 mutation, obtained from NCI (NCI-Frederick. Tumor Bank).
(§2) Tumour cells were grown in appropriate culture medium, either RPMI-1640 or DMEM, complemented with 10% calf-fetal serum and antibiotics.
(§3) Cell proliferation was evaluated by ^14C-thymidine uptake in DNA. Exponentially growing cells - from 5.10^3 to 10^4 per well in 180 µL culture medium - were introduced in a 96-wells microtitration Cytostar-T apparatus (GE Healthcare Bio-Sciences, Uppsala, Sweden). After 4 hours pre-incubation under CO2 atmosphere at 37°C, compounds were added in 10 µL volume. After incubation for an additional 72 hours period, 0.1 µCi ^14C-thymidine was added in each well, C^14 -thymidine uptake was recorded 24 hours later on a scintillation counter (Perkin-Elmer Life Sciences, Boston, MA, USA). IC50, defined as the dose which inhibits 50% of cell proliferation, were thus determined.

CCRF-CEM = experiment: In vitro antiproliferative assay (14C-thymidine uptake), CEM cells; type: cell-based, human; conditions: 72 h incubation, then 14C-thymidine uptake recorded 24 h later
Experimental: as §1, §2, §3

MX1 tumor = experiment: In vivo antitumor evaluation in MX1 tumor model; design: species or system SCID mice; conditions: for SRI activity rating: day 10 to day 15 post tumor implantation
From the text: as §1
(§4) 7 to 8 weeks-old female SCID mice, obtained from Charles River (L'Arbresle, Lyon , France) were acclimated for at least 1 week previous experiment.
Animals, placed under normal light cycle, had then ad libitum access to food and water. MX1 cells, 10^7 cells per mouse initially grown in RPMI medium supplemented with 10% foetal-calf serum and antibiotics, were subcutaneously implanted in mice. When […] tumour volume was reached, fragments (2-3 mm diameter) were cut, placed in phosphate buffer (PBS), bilaterally implanted and further passaged in mice until tumour growth rate is stable, before starting the experiment. Tumors were measured with a caliper twice weekly until the tumor reached 2000 mm^3 or until the animal died (which ever come first). Tumor volumes were estimated from 2 dimensional measurements: Volume (in mm^3) = (a x b^2)/2, where a and b are the tumor length and width (mm) respectively. The variation from the baseline of the tumoral volume is calculated in the treated and control group. These values are used to calculate the median in the treated group (ΔT) and in the control group (ΔC). ΔT/ΔC, expressed as a percentage, is the ratio of median at a chosen day (the last day before it becomes necessary to sacrifice control mice owing to tumor size). ΔT/ΔC values can be translated into an activity rating, according to the Southern Research Institute (SRI) criteria:
(§5) When ΔT/ΔC values are negative, the percentage of regression is evaluated. A Partial regression (PR) is defined as a decrease in tumor volume greater than or equal to 50% of the tumor volume at start of treatment. A Complete regression (CR) is defined as a decrease in tumor volume below the limit of palpation (T=10mm^3). At the end of the study, the number of tumor free survivor (TFS) which correspond to mice without any detectable tumor is determined. Both drug-related deaths and maximum percent relative mean net body weight loss are also determined. A body weight loss (mean of group) of greater than 15% for more than 3 consecutive days or 20% weight loss for one day or 10% drug deaths are considered to indicate an excessively toxic dosage.

[1] = Toxicity (body weight loss, drug deaths) in the MX1 tumor model study; type: in vivo, SCID mice
Experimental: as §4, §5

[2] = i.v. daily during 5 days at 5 mg/kg
[3] = i.v. daily during 5 days at 5 mg/kg (25 mg/kg total dose)
[4] = i.v. daily during 5 days at 10 mg/kg
[5] = i.v. daily during 5 days at 10 mg/kg (50 mg/kg total dose)

`N.N.[Cl][Pt][Cl]` [cisplatin, reference compound] gave an IC50 (NCI-H460) of 2.6 to 4 µM and an IC50 (CCRF-CEM) of 0.4 to 0.8 µM.
With `O=C1[O][Pt]2([NH][C@@H]3CCCC[C@H]3[NH]2)[O]C1=O` [oxaliplatin, reference compound] the IC50 (NCI-H460) was 2.4 µM and the IC50 (CCRF-CEM) was 4 µM.
For `CC(=O)[O][Pt]([NH2])([Cl])([Cl])([NH]C1CCCCC1)[O]C(C)=O` [satraplatin, reference compound], the IC50 (NCI-H460) was 0.19 µM and the IC50 (CCRF-CEM) was 0.4 µM.
With “Trans-trans-trans-{PtCl2(OH)2(dimethylamine)[(exo)-2- norbornylamine]} [EXAMPLE 3]” the IC50 (NCI-H460) was 0.315 µM and the IC50 (CCRF-CEM) was 0.031 µM.
In the case of “Trans-trans-trans-{PtCl2(OH)2(isopropylamine)[(rac)-(endo)-norbornylamine]} [EXAMPLE 2]”, the IC50 (NCI-H460) is reported as 0.255 µM and the IC50 (CCRF-CEM) is reported as 0.025 µM.
With “Trans-trans-trans-{PtCl2(OH)2(isopropylamine)[(rac)-(exo)-norbornylamine]} [EXAMPLE 1]” the “CR (complete regression)” value (MX1 tumor; [2]) was 100%, the ΔT/ΔC (MX1 tumor; [3]) was under 0% and the SRI activity rating (MX1 tumor; [3]) was “highly active”. For the same compound, the “CR (complete regression)” value (MX1 tumor; [4]) was 100%, the “TFS (tumor free survivor) at the end of the study” value (MX1 tumor; [4]) was 2 and the ΔT/ΔC (MX1 tumor; [5]) was under 0%. The SRI activity rating (MX1 tumor; [5]) was “highly active”, the IC50 (NCI-H460) was 0.532 µM and the toxicity for mice ([1]; 20 mg/kg) was “toxic”. For the same compound, the deaths ([1]; 20 mg/kg, deaths on days 17, 19, 20, 21 and 24 (2 mice)) was 6/6, the body weight loss [1, 2] was 4% and the drug death [1, 2] was “no drug death”. The body weight loss [1, 4] was 12%, the drug death [1, 4] was “no drug death” and the maximal tolerated dose ([1]; i.v., daily for 5 days schedule) was 10 mg/kg. It also gave an IC50 (CCRF-CEM) of 0.053 µM.
